Data from ChEMBL document CHEMBL1201861, “Genomics of Drug Sensitity in Cancer screening data, Wellcome Trust Sanger Institute”.

Columns and labels:
Test in all cases: cells
COLO-800 = assay type: functional, cell-based, Homo sapiens; conditions: Homo sapiens, COLO-800;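 also: growth inhibition of COLO-800 cells, read out with a cell viability assay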
Description: SANGER: Inhibition of human COLO-800 cell growth in a cell viability assay.

COR-L88 = assay type: functional, cell-based, Homo sapiens; conditions: Homo sapiens, COR-L88;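 also: growth inhibition of COR-L88 cells, read out with a cell viability assay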
Description: SANGER: Inhibition of human COR-L88 cell growth in a cell viability assay.

CTV-1 = assay type: functional, cell-based, Homo sapiens; conditions: Homo sapiens, CTV-1;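 also: growth inhibition of the cell line, read out with a cell viability assay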
Description: SANGER: Inhibition of human CTV-1 cell growth in a cell viability assay.

D-502MG = assay type: functional, cell-based, Homo sapiens; conditions: Homo sapiens, D-502MG
Description: SANGER: Inhibition of human D-502MG cell growth in a cell viability assay.

EM-2 = assay type: functional, cell-based, Homo sapiens; conditions: Homo sapiens, EM-2;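 also: growth inhibition of EM-2 cells, read out with a cell viability assay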
Description: SANGER: Inhibition of human EM-2 cell growth in a cell viability assay.

ETK-1 = assay type: functional, cell-based, Homo sapiens; conditions: Homo sapiens, ETK-1;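 also: growth inhibition of human ETK-1 cells, read out with a cell viability assay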
Description: SANGER: Inhibition of human ETK-1 cell growth in a cell viability assay.

EW-18 = assay type: functional, cell-based, Homo sapiens; conditions: Homo sapiens, EW-18; read-out: IC50;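 also: growth inhibition of EW-18 cells, read out by a cell viability assay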
Description: SANGER: Inhibition of human EW-18 cell growth in a cell viability assay.

GAK = assay type: functional, cell-based, Homo sapiens; conditions: Homo sapiens, GAK;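 also: cell growth inhibition read out by a cell viability assay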
Description: SANGER: Inhibition of human GAK cell growth in a cell viability assay.

GI-1 = assay type: functional, cell-based, Homo sapiens; conditions: Homo sapiens, GI-1;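 also: growth inhibition of human GI-1 cells, measured with a cell viability readout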
Description: SANGER: Inhibition of human GI-1 cell growth in a cell viability assay.

GI-ME-N = assay type: functional, cell-based, Homo sapiens; conditions: Homo sapiens, GI-ME-N;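 also: growth inhibition of human GI-ME-N cells, read out with a cell viability assay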
Description: SANGER: Inhibition of human GI-ME-N cell growth in a cell viability assay.

HCC1187 = assay type: functional, cell-based, Homo sapiens; conditions: Homo sapiens, HCC1187;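 also: growth inhibition of HCC1187 cells, read out with a cell viability assay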
Description: SANGER: Inhibition of human HCC1187 cell growth in a cell viability assay.

HCE-4 = assay type: functional, cell-based; conditions: Homo sapiens;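 also: cell viability assay measuring inhibition of growth in the human HCE-4 cell line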
Description: SANGER: Inhibition of human HCE-4 cell growth in a cell viability assay.

HCE-T = assay type: functional, cell-based, Homo sapiens; conditions: Homo sapiens, HCE-T;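 also: cell viability assay read-out, reporting inhibition of HCE-T cell growth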
Description: SANGER: Inhibition of human HCE-T cell growth in a cell viability assay.

HDLM-2 = assay type: functional, cell-based, Homo sapiens; conditions: Homo sapiens, HDLM-2;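 also: cell viability assay measuring suppression of HDLM-2 proliferation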
Description: SANGER: Inhibition of human HDLM-2 cell growth in a cell viability assay.

IA-LM = assay type: functional, cell-based; conditions: Homo sapiens;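 also: cell viability assay measuring growth inhibition of human IA-LM cells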
Description: SANGER: Inhibition of human IA-LM cell growth in a cell viability assay.

IST-SL1 = assay type: functional, cell-based, Homo sapiens; conditions: Homo sapiens, IST-SL1;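 also: growth inhibition of human IST-SL1 cells, read out with a cell viability assay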
Description: SANGER: Inhibition of human IST-SL1 cell growth in a cell viability assay.

J-RT3-T3-5 = assay type: functional, cell-based, Homo sapiens; conditions: Homo sapiens, J-RT3-T3-5;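 also: cell viability assay measuring growth inhibition of human J-RT3-T3-5 cells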
Description: SANGER: Inhibition of human J-RT3-T3-5 cell growth in a cell viability assay.

KG-1 = assay type: functional, cell-based, Homo sapiens; conditions: Homo sapiens, KG-1;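 also: growth inhibition of KG-1 cells, read out by a cell viability assay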
Description: SANGER: Inhibition of human KG-1 cell growth in a cell viability assay.

KGN = assay type: functional, cell-based, Homo sapiens; conditions: Homo sapiens, KGN;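 also: growth inhibition of KGN cells, read out with a cell viability assay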
Description: SANGER: Inhibition of human KGN cell growth in a cell viability assay.

KLE = assay type: functional, cell-based; conditions: Homo sapiens;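 also: growth inhibition of human KLE cells, read out with a cell viability assay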
Description: SANGER: Inhibition of human KLE cell growth in a cell viability assay.

KM12 = assay type: functional, cell-based, Homo sapiens; conditions: Homo sapiens, KM12;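 also: KM12 cell growth inhibition, read out with a cell viability assay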
Description: SANGER: Inhibition of human KM12 cell growth in a cell viability assay.

KU812 cell line = assay type: functional, cell-based, Homo sapiens; conditions: Homo sapiens, KU812;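 also: growth inhibition of KU812 cells, read out with a cell viability assay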
Description: SANGER: Inhibition of human KU812 cell growth in a cell viability assay.

KURAMOCHI = assay type: functional, cell-based, Homo sapiens; conditions: Homo sapiens, KURAMOCHI;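 also: growth inhibition of KURAMOCHI cells, read out with a cell viability assay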
Description: SANGER: Inhibition of human KURAMOCHI cell growth in a cell viability assay.

KY821 = assay type: functional, cell-based, Homo sapiens; conditions: Homo sapiens, KY821;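 also: growth inhibition of human KY821 cells, read out by a cell viability assay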
Description: SANGER: Inhibition of human KY821 cell growth in a cell viability assay.

LB2518-MEL = assay type: functional, cell-based; conditions: Homo sapiens;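 also: growth inhibition of human LB2518-MEL cells, measured with a cell viability assay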
Description: SANGER: Inhibition of human LB2518-MEL cell growth in a cell viability assay.

LXF-289 cell line = assay type: functional, cell-based; conditions: Homo sapiens
Description: SANGER: Inhibition of human LXF-289 cell growth in a cell viability assay.

MMAC-SF = assay type: functional, cell-based; conditions: Homo sapiens;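 also: growth inhibition of human MMAC-SF cells, read out with a cell viability assay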
Description: SANGER: Inhibition of human MMAC-SF cell growth in a cell viability assay.

MN-60 = assay type: functional, cell-based, Homo sapiens; conditions: Homo sapiens, MN-60;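 also: growth inhibition of the MN-60 cell line, determined with a cell viability assay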
Description: SANGER: Inhibition of human MN-60 cell growth in a cell viability assay.

MS-1 = assay type: functional, cell-based, Homo sapiens; conditions: Homo sapiens, MS-1;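 also: growth inhibition of MS-1 cells, read out by cell viability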
Description: SANGER: Inhibition of human MS-1 cell growth in a cell viability assay.

MZ7-mel = assay type: functional, cell-based, Homo sapiens; conditions: Homo sapiens, MZ7-mel;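 also: growth inhibition of human MZ7-mel cells, measured by a cell viability assay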
Description: SANGER: Inhibition of human MZ7-mel cell growth in a cell viability assay.

NB5 = assay type: functional, cell-based, Homo sapiens; conditions: Homo sapiens, NB5;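 also: growth inhibition of NB5 cells, read out as cell viability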
Description: SANGER: Inhibition of human NB5 cell growth in a cell viability assay.

NCI-H1355 = assay type: functional, cell-based, Homo sapiens; conditions: Homo sapiens, NCI-H1355;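 also: growth inhibition of human NCI-H1355 cells, read out by a cell viability assay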
Description: SANGER: Inhibition of human NCI-H1355 cell growth in a cell viability assay.

NCI-H226 = assay type: functional, cell-based, Homo sapiens; conditions: Homo sapiens, NCI-H226;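 also: cell viability read-out used to gauge growth inhibition of the cells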
Description: SANGER: Inhibition of human NCI-H226 cell growth in a cell viability assay.

NTERA-2-cl-D1 = assay type: functional, cell-based, Homo sapiens; conditions: Homo sapiens, NTERA-2-cl-D1;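 also: inhibition of cell growth, measured with a cell viability assay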
Description: SANGER: Inhibition of human NTERA-S-cl-D1 cell growth in a cell viability assay.

OCI-AML2 = assay type: functional, cell-based, Homo sapiens; conditions: Homo sapiens, OCI-AML2;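 also: growth inhibition of OCI-AML2 cells, read out with a cell viability assay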
Description: SANGER: Inhibition of human OCI-AML2 cell growth in a cell viability assay.

OCUB-M = assay type: functional, cell-based; conditions: Homo sapiens;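 also: growth inhibition of the cancer cell line, read out through a cell viability assay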
Description: SANGER: Inhibition of human OCUB-M cell growth in a cell viability assay.

OVCAR-4 = assay type: functional, cell-based, Homo sapiens; conditions: Homo sapiens, OVCAR-4;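 also: growth inhibition of human OVCAR-4 cells, measured with a cell viability assay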
Description: SANGER: Inhibition of human OVCAR-4 cell growth in a cell viability assay.

P31-FUJ = assay type: functional, cell-based, Homo sapiens; conditions: Homo sapiens, P31-FUJ;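 also: growth inhibition of P31-FUJ cells, read out with a viability assay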
Description: SANGER: Inhibition of human P31-FUJ cell growth in a cell viability assay.

QIMR-WIL = assay type: functional, cell-based, Homo sapiens; conditions: Homo sapiens, QIMR-WIL;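 also: growth inhibition of QIMR-WIL cells, read out with a cell viability assay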
Description: SANGER: Inhibition of human QIMR-WIL cell growth in a cell viability assay.

RXF 393 = assay type: functional, cell-based, Homo sapiens; conditions: Homo sapiens, RXF 393;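 also: growth inhibition of human RXF 393 cells, read out with a cell viability assay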
Description: SANGER: Inhibition of human RXF393 cell growth in a cell viability assay.

Ramos-2G6-4C10 = assay type: functional, cell-based, Homo sapiens; conditions: Homo sapiens, Ramos-2G6-4C10;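 also: growth inhibition of the cell line, measured by a cell viability read-out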
Description: SANGER: Inhibition of human Ramos-2G6-4C10 cell growth in a cell viability assay.

SH-4 = assay type: functional, cell-based; conditions: Homo sapiens;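 also: growth inhibition of SH-4 cells, read out with a cell viability assay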
Description: SANGER: Inhibition of human SH-4 cell growth in a cell viability assay.

SNB-75 = assay type: functional, cell-based, Homo sapiens; conditions: Homo sapiens, SNB-75;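 also: cell viability assay measuring growth inhibition of human SNB-75 cells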
Description: SANGER: Inhibition of human SNB75 cell growth in a cell viability assay.

SNU-C2B = assay type: functional, cell-based; conditions: Homo sapiens;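 also: cell viability readout used to measure compound-driven suppression of SNU-C2B cell proliferation, IC50 marking half-maximal growth inhibition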
Description: SANGER: Inhibition of human SNU-C2B cell growth in a cell viability assay.

SW 962 = assay type: functional, cell-based, Homo sapiens; conditions: Homo sapiens, SW 962;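 also: growth inhibition of human SW962 cells, read out by a cell viability assay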
Description: SANGER: Inhibition of human SW962 cell growth in a cell viability assay.

A4-Fuk = assay type: functional, cell-based, Homo sapiens; conditions: Homo sapiens, A4-Fuk;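 also: growth inhibition of A4-Fuk cells, read out by a cell viability assay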
Description: SANGER: Inhibition of human A4-Fuk cell growth in a cell viability assay.

U-266 = assay type: functional, cell-based, Homo sapiens; conditions: Homo sapiens, U-266
Description: SANGER: Inhibition of human U-266 cell growth in a cell viability assay.

UACC-257 = assay type: functional, cell-based, Homo sapiens; conditions: Homo sapiens, UACC-257
Description: SANGER: Inhibition of human UACC-257 cell growth in a cell viability assay.

no-11 = assay type: functional, cell-based, Homo sapiens; conditions: Homo sapiens;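 also: growth inhibition of human NO-11 cells, read out with a cell viability assay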
Description: SANGER: Inhibition of human no-11 cell growth in a cell viability assay.

COLO-668 = assay type: functional, cell-based, Homo sapiens; conditions: Homo sapiens, COLO-668
Description: SANGER: Inhibition of human COLO-668 cell growth in a cell viability assay.

For C=CC(=O)N1CCCC(Nc2nc(Nc3ccc(N(C)C(=O)CC)cc3)nc3[nH]cnc23)C1 (stereo not given), the IC50 (COLO-800) was > 10.2 µM, the IC50 (COR-L88) was > 10.2 µM and the IC50 (CTV-1) was > 10.2 µM. For the same molecule, the IC50 (D-502MG) was > 10.2 µM, the IC50 (EM-2) was > 10.2 µM and the IC50 (ETK-1) was > 10.2 µM. For the same molecule, the IC50 (EW-18) was > 10.2 µM, the IC50 (GAK) was > 10.2 µM and the IC50 (GI-1) was > 10.2 µM. For the same molecule, the IC50 (GI-ME-N) was > 10.2 µM, the IC50 (HCC1187) was > 10.2 µM and the IC50 (HCE-4) was > 10.2 µM. The IC50 (HCE-T) was > 10.2 µM, the IC50 (HDLM-2) was > 10.2 µM and the IC50 (IA-LM) was > 10.2 µM. The IC50 (IST-SL1) was > 10.2 µM, the IC50 (J-RT3-T3-5) was > 10.2 µM and the IC50 (KG-1) was > 10.2 µM. For the same molecule, the IC50 (KGN) was > 10.2 µM, the IC50 (KLE) was > 10.2 µM and the IC50 (KM12) was > 10.2 µM. For the same molecule, the IC50 (KU812 cell line) was > 10.2 µM, the IC50 (KURAMOCHI) was > 10.2 µM and the IC50 (KY821) was > 10.2 µM. For the same molecule, the IC50 (LB2518-MEL) was > 10.2 µM, the IC50 (LXF-289 cell line) was > 10.2 µM and the IC50 (MMAC-SF) was > 10.2 µM. The IC50 (MN-60) was > 10.2 µM, the IC50 (MS-1) was > 10.2 µM and the IC50 (MZ7-mel) was > 10.2 µM. For the same molecule, the IC50 (NB5) was > 10.2 µM, the IC50 (NCI-H1355) was > 10.2 µM and the IC50 (NCI-H226) was > 10.2 µM. The IC50 (NTERA-2-cl-D1) was > 10.2 µM, the IC50 (OCI-AML2) was > 10.2 µM and the IC50 (OCUB-M) was 2.1 µM. For the same molecule, the IC50 (OVCAR-4) was > 10.2 µM, the IC50 (P31-FUJ) was > 10.2 µM and the IC50 (QIMR-WIL) was > 10.2 µM. The IC50 (RXF 393) was > 10.2 µM, the IC50 (Ramos-2G6-4C10) was > 10.2 µM and the IC50 (SH-4) was > 10.2 µM. For the same molecule, the IC50 (SNB-75) was > 10.2 µM, the IC50 (SNU-C2B) was > 10.2 µM and the IC50 (SW 962) was 5.16 µM. For the same molecule, the IC50 (A4-Fuk) was > 10.2 µM, the IC50 (U-266) was > 10.2 µM and the IC50 (UACC-257) was > 10.2 µM. For the same molecule, the IC50 (no-11) was > 10.2 µM and the IC50 (COLO-668) was > 10.2 µM.

For Cc1cc(N2CCOCC2)cc2[nH]c(-c3c(NC[C@@H](O)c4cccc(Cl)c4)cc[nH]c3=O)nc12, the IC50 (COLO-800) was > 5.12 µM, the IC50 (COR-L88) was > 5.12 µM and the IC50 (CTV-1) was 2.88 µM. For the same molecule, the IC50 (D-502MG) was > 5.12 µM, the IC50 (EM-2) was > 5.12 µM and the IC50 (ETK-1) was 0.0961 µM. For the same molecule, the IC50 (EW-18) was > 5.12 µM, the IC50 (GAK) was > 5.12 µM and the IC50 (GI-1) was 0.913 µM. For the same molecule, the IC50 (GI-ME-N) was 2.06 µM, the IC50 (HCC1187) was > 5.12 µM and the IC50 (HCE-4) was > 5.12 µM. For the same molecule, the IC50 (HCE-T) was > 5.12 µM, the IC50 (HDLM-2) was > 5.12 µM and the IC50 (IA-LM) was > 5.12 µM. The IC50 (IST-SL1) was > 5.12 µM, the IC50 (J-RT3-T3-5) was > 5.12 µM and the IC50 (KG-1) was > 5.12 µM. It also gave an IC50 (KGN) of 1.09 µM, an IC50 (KLE) of 3.62 µM and an IC50 (KM12) of 0.0284 µM. The IC50 (KU812 cell line) was > 5.12 µM, the IC50 (KURAMOCHI) was 4 µM and the IC50 (KY821) was > 5.12 µM. The IC50 (LB2518-MEL) was > 5.12 µM, the IC50 (LXF-289 cell line) was 1.55 µM and the IC50 (MMAC-SF) was 0.5 µM. For the same molecule, the IC50 (MN-60) was > 5.12 µM, the IC50 (MS-1) was > 5.12 µM and the IC50 (MZ7-mel) was > 5.12 µM. The IC50 (NB5) was 1.11 µM, the IC50 (NCI-H1355) was 0.553 µM and the IC50 (NCI-H226) was > 5.12 µM. The IC50 (NTERA-2-cl-D1) was 0.257 µM, the IC50 (OCI-AML2) was 1.31 µM and the IC50 (OCUB-M) was > 5.12 µM. The IC50 (OVCAR-4) was 4.87 µM, the IC50 (P31-FUJ) was > 5.12 µM and the IC50 (QIMR-WIL) was > 5.12 µM. The IC50 (RXF 393) was 1.3 µM, the IC50 (Ramos-2G6-4C10) was > 5.12 µM and the IC50 (SH-4) was 0.882 µM. It also gave an IC50 (SNB-75) of 3.43 µM, an IC50 (SNU-C2B) of 2.71 µM and an IC50 (SW 962) of 1.2 µM. For the same molecule, the IC50 (A4-Fuk) was 0.0578 µM, the IC50 (U-266) was > 5.12 µM and the IC50 (UACC-257) was > 5.12 µM. For the same molecule, the IC50 (no-11) was > 5.12 µM and the IC50 (COLO-668) was 1.19 µM.
